# Test results as given in publication PMC12207366, “Protonated Glutamate and Aspartate Side Chains Can Recognize Phosphodiester Groups via Strong and Short Hydrogen Bonds in Biomacromolecular Complexes” (Angewandte Chemie (International Ed. in English), 2025).
# Key:
# PilF159-302 Q190E = molecular target: T1, PilF159-302 Q190E (Thermus thermophilus, UniProt Q72H73, Q190E); assay: ITC c-di-GMP binding to Q190E mutant, pH series; details: 20 °C
# T1 sequence (Q72H73 159-302 Q190E): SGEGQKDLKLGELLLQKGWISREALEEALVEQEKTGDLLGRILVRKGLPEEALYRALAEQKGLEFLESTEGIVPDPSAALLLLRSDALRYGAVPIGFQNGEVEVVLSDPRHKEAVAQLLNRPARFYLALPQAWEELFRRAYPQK
# Source text: (§1) To characterize c-di-GMP binding by PilF159-302, the Q190E and Q218E constructs via isothermal titration calorimetry (ITC) and X-ray crystallography unlabeled c-di-GMP was synthesized using a constitutively active mutant of a diguanylate cyclase from the thermophilic bacterium Thermogata maritima ^[4^4,4^5]. For NMR experiments ^13C,^15N labelled c-di-GMP was synthesized identically using ^13C,^15N labelled GTP as a substrate.
# (§2) c-di-GMP binding capabilities of PilF159-302, its mutant constructs PilF159-302 Q190E and PilF159-302 Q218E at varying pH-values were investigated by isothermal titration calorimetry (ITC) experiments in triplicate. All measurements were conducted at 20 °C using a MicroCal ITC200 (Malvern Panalytical, UK). For PilF159-302 Q190E and PilF159-302 Q218E ITC-measurements were conducted in a pH range from pH 8.5 – 4.0 with the buffering agent adjusted to the respective pH-range. For the pH-range 8.5 – 7.5 a sample buffer of 50 mM Tris, 200 mM NaCl and 1 mM β-Me was used. For pH values 7.0 – 6.0 a sample buffer of 50 mM BisTris, 200 mM NaCl, 1 mM β-Me and for pH 5.5 – 4.0 a sample buffer of 50 mM NaAc, 200 mM NaCl, 1 mM β-Me was used. For reference PilF159-302 was titrated with c-di-GMP at pH 8.5 in 50 mM Tris pH 8.5, 200 mM NaCl, 1 mM β-Me and at pH 4.0 in 50 mM NaAc pH 4.0, 200 mM NaCl, 1 mM β-Me. In order to test whether the buffer reagents have an influence on the measured thermodynamic parameters, cross measurements were performed in the region of the pH transitions. To this end, additional measurements with BisTris at pH 7.5 and 5.5, with Tris at pH 7.0 and with NaAc at pH 6.0 were carried out as singlets. The buffer agents had no influence on measured KD-values and resulted only in small changes of the ΔH values. All protein samples were dialyzed two times against 500 ml of the respective sample buffer (1 L in total) at 4 °C for at least 16 hours per step using a dialysis chamber with a nominal 3.5 kDa molecular weight cutoff (ZelluTrans, ROTH). To prepare the ITC-measurements protein and c-di-GMP sample were adjusted to the respective concentration using the dialysis buffer. Protein and c-di-GMP concentration ranged from 20 to 50 µM (protein) and 200 to 500 µM (c-di-GMP) depending on the c-di-GMP binding capabilities at the different pH-values to optimize precision of the measurements. For pH 8.5 – 7.0 a protein concentration of 50 µM with 500 µM c-di-GMP was used. For pH 6.5 – 5.0 a protein concentration of 30 µM with 300 µM c-di-GMP and for pH 4.5 – 4.0 a protein concentration of 20 µM with 200 µM c-di-GMP was used. The following protocol was utilized for each measurement. To 270 µl protein a total of 40 µl c-di-GMP was titrated in 21 injections with a duration of 4 s in intervals of 180 s with a stirring speed of 750 rpm. The first injection of 0.2 µl c-di-GMP with a duration of 0.4 s was carried out after an initial delay of 120 s, which was followed by 20 injections of 2 µl each with a duration of 4 s. During the measurement, the feedback mode was set to high and the reference power to 11 µcal s^-1. All thermograms were processed using Origin 7.0 (OriginLab) using the one-site binding model.
# PilF159-302 WT = molecular target: T2, PilF159-302 WT (Thermus thermophilus, UniProt Q72H73); assay: ITC c-di-GMP binding to wild-type GSPII-B domain; details: for -TΔS / Kd / ΔG / ΔH: 20 °C
# T2 sequence (Q72H73 159-302): T1 sequence (Q72H73 159-302 Q190E)
# Source text: as §1, §2
# [1] = Bis-Tris, pH 5.5, buffer cross measurement, singlet
# [2] = Bis-Tris, pH 7.5, buffer cross measurement, singlet
# [3] = Na-Acetate, pH 6.0, buffer cross measurement, singlet
# [4] = Tris, pH 7.0, buffer cross measurement, singlet
smiles,measurement,setting,value
Nc1nc2c(ncn2C2OC3COP(=O)(O)OC4C(COP(=O)(O)OC3C2O)OC(n2cnc3c(=O)[nH]c(N)nc32)C4O)c(=O)[nH]1 (stereo not drawn) [c-di-GMP],-TΔS,PilF159-302 Q190E; [1],-2.53 kcal/mol
same,Kd,PilF159-302 Q190E; [1],71 nM
same,ΔG,PilF159-302 Q190E; [1],-9.58 kcal/mol
same,ΔH,PilF159-302 Q190E; [1],-7.06 kcal/mol
same,-TΔS,"PilF159-302 Q190E; Bis-Tris, pH 6.0",-3.45 ± 0.05 kcal/mol
same,Kd,"PilF159-302 Q190E; Bis-Tris, pH 6.0",67 ± 3 nM
same,N,"PilF159-302 Q190E; Bis-Tris, pH 6.0",0.96 ± 0.01
same,ΔG,"PilF159-302 Q190E; Bis-Tris, pH 6.0",-9.40 ± 0.02 kcal/mol
same,ΔH,"PilF159-302 Q190E; Bis-Tris, pH 6.0",-5.97 ± 0.05 kcal/mol
same,-TΔS,"PilF159-302 Q190E; Bis-Tris, pH 6.5",-3.55 ± 0.20 kcal/mol
same,Kd,"PilF159-302 Q190E; Bis-Tris, pH 6.5",160 ± 34 nM
same,N,"PilF159-302 Q190E; Bis-Tris, pH 6.5",0.72 ± 0.12
same,ΔG,"PilF159-302 Q190E; Bis-Tris, pH 6.5",-9.12 ± 0.13 kcal/mol
same,ΔH,"PilF159-302 Q190E; Bis-Tris, pH 6.5",-5.58 ± 0.09 kcal/mol
same,-TΔS,"PilF159-302 Q190E; Bis-Tris, pH 7.0",-4.14 ± 0.23 kcal/mol
same,Kd,"PilF159-302 Q190E; Bis-Tris, pH 7.0",236 ± 8 nM
same,N,"PilF159-302 Q190E; Bis-Tris, pH 7.0",0.98 ± 0.01
same,ΔG,"PilF159-302 Q190E; Bis-Tris, pH 7.0",-8.88 ± 0.02 kcal/mol
same,ΔH,"PilF159-302 Q190E; Bis-Tris, pH 7.0",-4.76 ± 0.21 kcal/mol
same,-TΔS,PilF159-302 Q190E; [2],-2.51 kcal/mol
same,Kd,PilF159-302 Q190E; [2],505 nM
same,ΔG,PilF159-302 Q190E; [2],-8.44 kcal/mol
same,ΔH,PilF159-302 Q190E; [2],-5.93 kcal/mol
same,-TΔS,"PilF159-302 Q190E; Na-Acetate, pH 4.0",-2.59 ± 0.37 kcal/mol
same,Kd,"PilF159-302 Q190E; Na-Acetate, pH 4.0",40 ± 13 nM
same,N,"PilF159-302 Q190E; Na-Acetate, pH 4.0",0.98 ± 0.01
same,ΔG,"PilF159-302 Q190E; Na-Acetate, pH 4.0",-9.96 ± 0.22 kcal/mol
same,ΔH,"PilF159-302 Q190E; Na-Acetate, pH 4.0",-7.37 ± 0.17 kcal/mol
same,-TΔS,"PilF159-302 Q190E; Na-Acetate, pH 4.5",-2.27 ± 0.87 kcal/mol
same,Kd,"PilF159-302 Q190E; Na-Acetate, pH 4.5",42 ± 13 nM
same,N,"PilF159-302 Q190E; Na-Acetate, pH 4.5",0.95 ± 0.13
same,ΔG,"PilF159-302 Q190E; Na-Acetate, pH 4.5",-9.92 ± 0.18 kcal/mol
same,ΔH,"PilF159-302 Q190E; Na-Acetate, pH 4.5",-7.65 ± 0.98 kcal/mol
same,-TΔS,"PilF159-302 Q190E; Na-Acetate, pH 5.0",-0.27 ± 0.51 kcal/mol
same,Kd,"PilF159-302 Q190E; Na-Acetate, pH 5.0",78 ± 11 nM
same,N,"PilF159-302 Q190E; Na-Acetate, pH 5.0",0.91 ± 0.04
same,ΔG,"PilF159-302 Q190E; Na-Acetate, pH 5.0",-9.54 ± 0.09 kcal/mol
same,ΔH,"PilF159-302 Q190E; Na-Acetate, pH 5.0",-9.28 ± 0.43 kcal/mol
same,-TΔS,"PilF159-302 Q190E; Na-Acetate, pH 5.5",-1.11 ± 0.16 kcal/mol
same,Kd,"PilF159-302 Q190E; Na-Acetate, pH 5.5",74 ± 8 nM
same,N,"PilF159-302 Q190E; Na-Acetate, pH 5.5",1.02 ± 0.02
same,ΔG,"PilF159-302 Q190E; Na-Acetate, pH 5.5",-9.56 ± 0.07 kcal/mol
same,ΔH,"PilF159-302 Q190E; Na-Acetate, pH 5.5",-8.54 ± 0.04 kcal/mol
same,-TΔS,PilF159-302 Q190E; [3],-0.49 kcal/mol
same,Kd,PilF159-302 Q190E; [3],96 nM
same,ΔG,PilF159-302 Q190E; [3],-9.41 kcal/mol
same,ΔH,PilF159-302 Q190E; [3],-8.93 kcal/mol
same,-TΔS,PilF159-302 Q190E; [4],-6.09 kcal/mol
same,Kd,PilF159-302 Q190E; [4],223 nM
same,ΔG,PilF159-302 Q190E; [4],-8.92 kcal/mol
same,ΔH,PilF159-302 Q190E; [4],-2.81 kcal/mol
same,-TΔS,"PilF159-302 Q190E; Tris, pH 7.5",-4.63 ± 0.19 kcal/mol
same,Kd,"PilF159-302 Q190E; Tris, pH 7.5",511 ± 13 nM
same,N,"PilF159-302 Q190E; Tris, pH 7.5",0.95 ± 0.09
same,ΔG,"PilF159-302 Q190E; Tris, pH 7.5",-8.44 ± 0.02 kcal/mol
same,ΔH,"PilF159-302 Q190E; Tris, pH 7.5",-3.81 ± 0.20 kcal/mol
same,-TΔS,"PilF159-302 Q190E; Tris, pH 8.0",-3.37 ± 0.65 kcal/mol
same,Kd,"PilF159-302 Q190E; Tris, pH 8.0",729 ± 44 nM
same,N,"PilF159-302 Q190E; Tris, pH 8.0",0.84 ± 0.17
same,ΔG,"PilF159-302 Q190E; Tris, pH 8.0",-8.23 ± 0.04 kcal/mol
same,ΔH,"PilF159-302 Q190E; Tris, pH 8.0",-4.87 ± 0.68 kcal/mol
same,-TΔS,"PilF159-302 Q190E; Tris, pH 8.5",-2.52 ± 0.20 kcal/mol
same,Kd,"PilF159-302 Q190E; Tris, pH 8.5",798 ± 39 nM
same,N,"PilF159-302 Q190E; Tris, pH 8.5",0.86 ± 0.09
same,ΔG,"PilF159-302 Q190E; Tris, pH 8.5",-8.18 ± 0.03 kcal/mol
same,ΔH,"PilF159-302 Q190E; Tris, pH 8.5",-5.66 ± 0.17 kcal/mol
same,"c-di-GMP binding affinity, pH dependence","PilF159-302 WT; ITC, pH 4.0 versus pH 8.5",similar
same,-TΔS,"PilF159-302 WT; Na-Acetate, pH 4.0",-4.81 kcal/mol
same,Kd,"PilF159-302 WT; Na-Acetate, pH 4.0",4 nM
same,ΔG,"PilF159-302 WT; Na-Acetate, pH 4.0",-11.26 kcal/mol
same,ΔH,"PilF159-302 WT; Na-Acetate, pH 4.0",-6.45 kcal/mol
same,-TΔS,"PilF159-302 WT; Tris, pH 8.5",0.63 kcal/mol
same,Kd,"PilF159-302 WT; Tris, pH 8.5",9 nM
same,ΔG,"PilF159-302 WT; Tris, pH 8.5",-10.78 kcal/mol
same,ΔH,"PilF159-302 WT; Tris, pH 8.5",-11.41 kcal/mol
